Experimental data as given in US20260137706A1, “METHODS OF TREATING INFLAMMATORY DISEASES” (INTERLINE THERAPEUTICS, INC., priority 2023, published 2026).
Read-outs that look alike come from different tables or passages of the source.

How the values were obtained:
[1] = target: T1, binding of His-XIAP(BIR2)-avi fusion protein to GST-RIPK2 fusion protein (RIPK2/XIAP) (Homo sapiens, UniProt O43353); assay: RIPK2-XIAP binding competition PPI assay (TR-FRET); conditions: for IC50: read-out: PPI IC50 bin; for Emax: read-out: PPI Amax bin
T1 construct: made in house; host or cells: baculovirus infected Sf9 cells
T1 sequence (O43353 1-310 limits assumed): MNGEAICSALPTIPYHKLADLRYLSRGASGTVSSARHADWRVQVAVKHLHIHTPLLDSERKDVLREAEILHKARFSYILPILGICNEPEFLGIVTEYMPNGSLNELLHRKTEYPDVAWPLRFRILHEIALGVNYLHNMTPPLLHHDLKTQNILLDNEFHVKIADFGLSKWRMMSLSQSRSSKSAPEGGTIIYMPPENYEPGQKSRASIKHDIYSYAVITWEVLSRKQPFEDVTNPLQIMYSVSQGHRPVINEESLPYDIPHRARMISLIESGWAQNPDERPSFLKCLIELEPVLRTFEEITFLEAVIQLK
Procedure, shortened: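 Compounds (in DMSO, 100-fold stock) incubated 120 min at 23 °C with 1 nM GST-RIPK2 (aa 1-310) and 25 nM His-XIAP(BIR2 aa 152-231)-avi, plus anti-His-XL665 and anti-GST-Tb, in pH 7.5 Tris buffer. Read-out: 665/520 nm emission ratio. Normalized to no-inhibitor (0%) and 50 nM GSK583 (−100%); Amax binned A–D.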

[2] = target: T2, GST-RIPK2 fusion protein (human RIPK2, amino acids 1-310) (Homo sapiens, UniProt O43353); assay: RIPK2 binding competition assay (TR-FRET, Tracer 199 displacement); conditions: 10 nM Tracer 199, 1 nM GST-RIPK2, read-out: RIPK2 IC50
T2 construct: made in house; host or cells: baculovirus infected Sf9 cells
T2 sequence (O43353 1-310): as the sequence (O43353 1-310 limits assumed) above
Source text: The ability of selected compounds of Formula (I) to inhibit the binding of an Alexa647-labelled ATP-competitive kinase inhibitor to a GST-RIPK2 fusion protein was quantified employing the TR-FRET-based RIPK2 binding competition assay as described in the following paragraphs.
Recombinant fusion protein of N-terminal Glutathione-S-Transferase (GST) and a fragment of human RIPK2 (amino acids 1-310 of accession number 043353), expressed in baculovirus infected Sf9 cells, purified via glutathione affinity chromatography, was used as GST-RIPK2 fusion protein. Tracer 199 from Life Technologies (catalogue no. PR9115B) was used as Alexa647-labelled ATP-competitive kinase inhibitor.
For the assay, 50 nL of a 100-fold concentrated solution of each test compound in DMSO was pipetted into either a black low volume 384-well microtiter plate or a black 1536-well microtiter plate (both Greiner Bio-One, Frickenhausen, Germany), 3 μL solution of Tracer 199 (16.7 nM=>final concentration in 5 μL assay volume is 10 nM) in aqueous assay buffer (25 mM Tris/HCl pH 7.5, 10 mM magnesium chloride (MgCl2), 5 mM β-glycerophosphate, 2.5 mM dithiothreitol (DTT), 0.5 mM ethylene glycol-bis(2-aminoethylether)-N,N,N′,N′-tetraacetic acid (EGTA), 0.5 mM sodium ortho-vanadate, 0.01% (w/v) bovine serum albumin (BSA), 0.005% (w/v) Pluronic F-127 (Sigma)) were added. Then the binding competition was started by the addition of 2 μL of a solution of the GST-RIPK2 fusion protein (2.5 nM=>final conc. in the 5 μL assay volume is 1 nM) and of Anti-GST-Tb (1.25 nM=>final conc. in the 5 μL assay volume is 0.5 nM), a Lumi4®—Tb cryptate-conjugated anti-GST antibody from PerkinElmer (catalogue no 61GSTTAH), in assay buffer.
The resulting mixture was incubated 45 min at 22° C. to allow the formation of a complex between the Tracer 199, the fusion protein and Anti-GST-Tb. Subsequently, the amount of this complex was evaluated by measurement of the resonance energy transfer from the Tb-cryptate to the Tracer 199. Therefore, the fluorescence emissions at 620 nm and 665 nm after excitation at 337 nm were measured in a TR-FRET reader, e.g. a Pherastar FS (BMG Labtechnologies, Offenburg, Germany) or a Viewlux (PerkinElmer). The ratio of the emissions at 665 nm and at 620 nm was taken as the measure of the amount of the complex. The data were normalized (assay reaction without inhibitor=0% activity, all other assay components but no GST-RIPK2 fusion protein=−100% activity).
Table A1 below lists IC50 values of selected compounds of Formula (I) measured in the RIPK2 binding competition assay.

[3] = system: NF-κB pathway (SEAP) in THP1-Dual cells; assay: THP-1 Dual cell SEAP assay (L18-MDP stimulated); format: cell-based; conditions: Homo sapiens, THP1-Dual, read-out: NF-κB THP1 IC50 bin
Procedure, shortened: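 THP1-Dual cells (~25,000/well) were preincubated 30 min with serially diluted compounds, then stimulated with 10 ng/mL L18-MDP (final) for 20-24 h at 37 °C. Supernatant SEAP was read with QUANTI-Blue at OD 620-655 nm after 2 h. IC50 came from non-linear fits of % inhibition versus DMSO/L18-MDP controls after media-blank subtraction.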

[4] = RIPK2/XIAP binding competition PPI assay
[5] = RIPK2/XIAP binding competition PPI assay, Amax

| SMILES | IC50 [1, 4] [µM] | Emax [1] [%] | IC50 [2] [µM] | IC50 [3] [µM] | Emax [1, 5] [%] |
| --- | --- | --- | --- | --- | --- |
| COc1cc2ncc(-c3cc4cn[nH]c4cn3)n2cc1S(=O)(=O)C(C)(C)C [Example 11, 5-(6-(tert-butylsulfonyl)-7-methoxyimidazo[1,2-a]pyridin-3-yl)-1H-pyrazolo[3,4-c]pyridine] | > 0.02 | < 30 | 0.0025 to 0.02 | < 0.05 |  |
| CC(C)(C)S(=O)(=O)c1cn2c(-c3cc(F)c(N)nc3F)cnc2cc1OCCO [Example 12, 2-((3-(6-amino-2,5-difluoropyridin-3-yl)-6-(tert-butylsulfonyl)imidazo[1,2-a]pyridin-7-yl)oxy)ethan-1-ol] | 0.0025 to 0.02 | > 80 | 0.0025 to 0.02 | 0.05 to 0.25 |  |
| CC(C)(C)S(=O)(=O)c1cn2c(-c3cc(Cl)c(N)nc3F)cnc2cc1OCCO [Example 13, 2-((3-(6-amino-5-chloro-2-fluoropyridin-3-yl)-6-(tert-butylsulfonyl)imidazo[1,2-a]pyridin-7-yl)oxy)ethan-1-ol] | 0.001 to 0.0025 |  | 0.001 to 0.0025 | 0.05 to 0.25 | > 80 |
| CC(C)(C)S(=O)(=O)c1cc2c(-c3cc(F)c(N)nc3F)cnn2cc1OCCO [Example 14, 2-((3-(6-amino-2,5-difluoropyridin-3-yl)-5-(tert-butylsulfonyl)pyrazolo[1,5-a]pyridin-6-yl)oxy)ethan-1-ol] | 0.001 to 0.0025 |  | 0.001 to 0.0025 | 0.05 to 0.25 | > 80 |
| CC(C)(C)S(=O)(=O)c1cc2c(-c3cc(Cl)c(N)nc3F)cnn2cc1OCCO [Example 15, 2-((3-(6-amino-5-chloro-2-fluoropyridin-3-yl)-5-(tert-butylsulfonyl)pyrazolo[1,5-a]pyridin-6-yl)oxy)ethan-1-ol] | 0.001 to 0.0025 |  | 0.001 to 0.0025 | 0.05 to 0.25 | > 80 |
| COCCOc1cc2ncc(-c3cc(F)c(N)nc3F)n2cc1S(=O)(=O)C(C)(C)C [Example 16, 5-(6-(tert-butylsulfonyl)-7-(2-methoxyethoxy)imidazo[1,2-a]pyridin-3-yl)-3,6-difluoropyridin-2-amine] | 0.0025 to 0.02 |  | 0.0025 to 0.02 | 0.25 to 1 | > 80 |
| CC(C)(C)S(=O)(=O)c1cn2c(-c3cc(F)c(N)nc3F)cnc2cc1OCCCO [Example 17, 3-((3-(6-amino-2,5-difluoropyridin-3-yl)-6-(tert-butylsulfonyl)imidazo[1,2-a]pyridin-7-yl)oxy)propan-1-ol] | 0.001 to 0.0025 |  | 0.001 to 0.0025 | 0.05 to 0.25 | > 80 |
| CC(C)(C)S(=O)(=O)c1cn2c(-c3cc(F)c(N)nc3F)cnc2cc1OCCN1CCOCC1 [Example 18, 5-(6-(tert-butylsulfonyl)-7-(2-morpholinoethoxy)imidazo[1,2-a]pyridin-3-yl)-3,6-difluoropyridin-2-amine] | 0.0025 to 0.02 |  | 0.0025 to 0.02 | 0.25 to 1 | > 80 |
| CN1CCN(CCOc2cc3ncc(-c4cc(F)c(N)nc4F)n3cc2S(=O)(=O)C(C)(C)C)CC1 [Example 19, 5-(6-(tert-butylsulfonyl)-7-(2-(4-methylpiperazin-1-yl)ethoxy)imidazo[1,2-a]pyridin-3-yl)-3,6-difluoropyridin-2-amine] | 0.0025 to 0.02 |  | 0.0025 to 0.02 | 0.25 to 1 | > 80 |
| CN(C)CCOc1cc2ncc(-c3cc(F)c(N)nc3F)n2cc1S(=O)(=O)C(C)(C)C [Example 20, 5-(6-(tert-butylsulfonyl)-7-(2-(dimethylamino)ethoxy)imidazo[1,2-a]pyridin-3-yl)-3,6-difluoropyridin-2-amine] | > 0.02 |  | 0.0025 to 0.02 | > 1 | > 80 |
| CC(C)(C)S(=O)(=O)c1cn2c(-c3cc(F)c(N)nc3F)cnc2cc1OCCN1CCNCC1 [Example 21, 5-(6-(tert-butylsulfonyl)-7-(2-(piperazin-1-yl)ethoxy)imidazo[1,2-a]pyridin-3-yl)-3,6-difluoropyridin-2-amine] | 0.0025 to 0.02 |  | 0.001 to 0.0025 | > 1 | > 80 |
| Cn1cc(-c2cc3ncc(-c4cc(F)c(N)nc4F)n3cc2S(=O)(=O)C(C)(C)C)cn1 [Example 22, 5-(6-(tert-butylsulfonyl)-7-(1-methyl-1H-pyrazol-4-yl)imidazo[1,2-a]pyridin-3-yl)-3,6-difluoropyridin-2-amine] | 0.0025 to 0.02 |  | 0.0025 to 0.02 | 0.25 to 1 | > 80 |
| COCCn1cc(-c2cc3ncc(-c4cc(F)c(N)nc4F)n3cc2S(=O)(=O)C(C)(C)C)cn1 [Example 23, 5-(6-(tert-butylsulfonyl)-7-(1-(2-methoxyethyl)-1H-pyrazol-4-yl)imidazo[1,2-a]pyridin-3-yl)-3,6-difluoropyridin-2-amine] | 0.0025 to 0.02 |  | 0.0025 to 0.02 | 0.25 to 1 | > 80 |
| CC(C)(C)S(=O)(=O)c1cn2c(-c3cc(F)c(N)nc3F)cnc2cc1OCCn1cccn1 [Example 24, 5-(7-(2-(1H-pyrazol-1-yl)ethoxy)-6-(tert-butylsulfonyl)imidazo[1,2-a]pyridin-3-yl)-3,6-difluoropyridin-2-amine] | 0.0025 to 0.02 |  | 0.0025 to 0.02 | 0.05 to 0.25 | > 80 |
| Cn1ccc(COc2cc3ncc(-c4cc(F)c(N)nc4F)n3cc2S(=O)(=O)C(C)(C)C)n1 [Example 25, 5-(6-(tert-butylsulfonyl)-7-((1-methyl-1H-pyrazol-3-yl)methoxy)imidazo[1,2-a]pyridin-3-yl)-3,6-difluoropyridin-2-amine] | 0.0025 to 0.02 |  | 0.0025 to 0.02 | 0.25 to 1 | > 80 |
| CC1(COc2cc3ncc(-c4cc(F)c(N)nc4F)n3cc2S(=O)(=O)C(C)(C)C)COC1 [Example 26, 5-(6-(tert-butylsulfonyl)-7-((3-methyloxetan-3-yl)methoxy)imidazo[1,2-a]pyridin-3-yl)-3,6-difluoropyridin-2-amine] | 0.0025 to 0.02 |  | 0.001 to 0.0025 | 0.05 to 0.25 | > 80 |
| Cn1ccc(-c2cc3ncc(-c4cc(F)c(N)nc4F)n3cc2S(=O)(=O)C(C)(C)C)n1 [Example 27, 5-(6-(tert-butylsulfonyl)-7-(1-methyl-1H-pyrazol-3-yl)imidazo[1,2-a]pyridin-3-yl)-3,6-difluoropyridin-2-amine] | > 0.02 |  | > 0.02 | > 1 | > 80 |
| CC(C)(O)COc1cc2ncc(-c3cc(F)c(N)nc3F)n2cc1S(=O)(=O)C(C)(C)C [Example 28, 1-((3-(6-amino-2,5-difluoropyridin-3-yl)-6-(tert-butylsulfonyl)imidazo[1,2-a]pyridin-7-yl)oxy)-2-methylpropan-2-ol] | 0.0025 to 0.02 |  | 0.001 to 0.0025 | 0.05 to 0.25 | > 80 |
| CC(C)(C)S(=O)(=O)c1cn2c(-c3cc(F)c(N)nc3F)cnc2cc1OCCN1CCOC1=O [Example 29, 3-(2-((3-(6-amino-2,5-difluoropyridin-3-yl)-6-(tert-butylsulfonyl)imidazo[1,2-a]pyridin-7-yl)oxy)ethyl)oxazolidin-2-one] | 0.0025 to 0.02 |  | 0.0025 to 0.02 | 0.25 to 1 | > 80 |
